Results taken from BigSolDB 2.1.

CC(C)(C)c1cc(CCC(=O)NCCCCCCNC(=O)CCc2cc(C(C)(C)C)c(O)c(C(C)(C)C)c2)cc(C(C)(C)C)c1O
solubility (mole fraction)
Conditions | 283.15 K | 288.15 K | 293.15 K | 298.15 K | 303.15 K | 308.15 K | 313.15 K | 318.15 K | 323.15 K
in acetone | 0.00214 | 0.00257 | 0.00297 | 0.00328 | 0.00419 | 0.00585 | 0.00747 | 0.01 | 0.0152
in ethanol | 0.00775 | 0.00841 | 0.00982 | 0.011 | 0.0126 | 0.0148 | 0.0178 | 0.0218 | 0.0264
in ethyl acetate | 0.000614 | 0.000852 | 0.00109 | 0.00123 | 0.00155 | 0.00192 | 0.00258 | 0.00376 | 0.00527
in ethyl formate | 0.00151 | 0.00205 | 0.00207 | 0.00254 | 0.00309 | 0.00406 | 0.00501 | 0.00622 | 0.00879
in isopropanol | 0.00326 | 0.00345 | 0.004 | 0.00459 | 0.00552 | 0.00688 | 0.00872 | 0.0107 | 0.0129
in methanol | 0.00197 | 0.0023 | 0.00263 | 0.0032 | 0.00388 | 0.00506 | 0.00666 | 0.00874 | 0.012
in methyl acetate | 0.000498 | 0.000804 | 0.000846 | 0.00107 | 0.00137 | 0.00185 | 0.00239 | 0.00359 | 0.00538
in n-propanol | 0.00711 | 0.00807 | 0.00974 | 0.0116 | 0.0128 | 0.0153 | 0.0183 | 0.0223 | 0.0254
